# According to patent US8927498B2, “Compositions and methods useful in enhancement of memory” (The Translational Genomics Research Institute, priority 2010, dated 2015):
# “Also recorded” adds a separate entry of the source.
# Legend:
# [1] = test system: seventeen-month-old Fischer-344 male rats (aged rat model of cognitive decline); test: water-escape plus maze, spatial working memory; type: in vivo; settings: 17-month-old Fischer-344 male rats, 1 mg/kg/day, vs vehicle (saline), n=9
# Procedure: (§1) In one embodiment of the present disclosed invention, the transduction complex comprises a fusion peptide including a TAT protein transduction domain and residues surrounding two known serine phosphorylation targets (Ser159 and Ser163) within MARCKS (SEQ ID NO: 3). The compound was administered to seventeen-month-old rats and behavioral spatial working memory of the rats was assessed by behavior testing. […] Such assays include, without limitation, the Morris water maze and the radial arm water maze, plus maze. For example, when employing the Morris water maze, a rat is trained to swim to a submerged platform. The rat can then be treated with an agent at a particular dose for a particular duration. Following treatment, the mean escape latency (i.e., time to find platform) is measured and compared to the mean escape latency of a control. […] Following treatment, the ability of the rat to remember a newly-learned path is measured and compared to that of a control. […] In the water Plus Maze test, the variables measured include the percentage of time spent in the open and closed areas of the maze, the latency to leave the central platform, the total number of crossings between the various open and closed areas of the maze, and the number of crossings into the open areas of the maze divided by the total number of crossings. […]
# [2] = test system: seventeen-month-old Fischer-344 male rats (aged rat model of cognitive decline); test: water-escape radial arm maze, spatial working memory; type: in vivo; settings: 17-month-old Fischer-344 male rats, 1 mg/kg/day, vs vehicle (saline)
# Procedure: as §1
substance,measurement,setting,value
SEQ ID NO: 1: fusion peptide including a TAT protein transduction domain and residues surrounding two known serine phosphorylation targets (Ser159 and Ser163) within MARCKS (YGRKKRRQRRRCKRFSFKKSFKLSGFSFKK; TAT MARCKS fusion),working memory performance in water-escape plus maze,[1],acquired the plus maze task at a faster rate; also recorded: enhanced working memory performance
same,working memory performance in water-escape radial arm maze,[2]; n=9,better able to process multiple items of information; also recorded: enhanced working memory performance
same,working memory performance in water-escape radial arm maze,"[2]; n=9, listed as MARCKS peptide decoy",better performance in the radial arm water maze
